Test results reported in patent US20240246960A1 (adMare Therapeutics Society, priority 2021, published 2024).

target: T1, DNA-PK phosphorylation at Serine 2056 (Homo sapiens, UniProt P78527); test: Cellular Assay for Inhibition of DNA-PK Phosphorylation at Serine 2056 (FaDu cells, neocarzinostatin, sandwich ELISA); assay type: cell-based; details: Table 3
T1 construct: host or cells: FaDu
Description: FaDu cells were purchased from ATCC and maintained in MEM alpha medium (Life Technologies, cat. no. 12561) supplemented with 10% fetal bovine serum, and 1% GlutaMAX at 37° C. supplemented with 5% CO2. 50,000 cells were seeded to each well of a 96-well cell culture plate in 50 μL of culture medium and incubated for 16-24 hours. Three-fold serially diluted compounds were prepared in DMSO. Culture media was used to prepare compound treatments to 0.3% DMSO (dimethyl sulphoxide) content. Compound treatments were added to the cells for 1 hour prior incubation, followed by the addition of neocarzinostatin in fresh culture medium to 1 μg/mL final concentration for an additional 2 hours incubation to induce DNA DSBs (double-strand breaks). DMSO controls were incubated with fresh culture medium alone for the additional two hours incubation. The cells were then lysed and frozen at −20° C. Cell lysates were thawed on wet ice and protein concentrations quantified by BCA Protein Assay (Thermo # 23225). Lysis buffer was used to normalize lysates by protein content and all lysates were then investigated by sandwich ELISA by means of DNA-PK-specific antibodies (Abcam ab44815: total DNA-PK; ab124918: phosphoserine-2056 DNA-PK) in sandwich ELISA format on the MSD S600MM platform (MesoScale Discovery). % inhibition was calculated for all data points: =1−(DATA_PT−AVERAGE(DMSO controls))/(AVERAGE(NCS controls)−AVERAGE(DMSO controls)). Logarithm of the molar concentration of compound was plotted against percent inhibition to calculate IC50 values, with curve fit settings for data fit to log(inhibitor) vs. normalized response—Variable slope using curve fit software (GraphPad Prism).

IC50, < 100 nM:
CS(=O)(=O)Nc1cnc2cc(N3CCOCC3)nc(O[C@H]3CC[C@@H](Nc4nccnc4C#N)CC3)c2c1 [LFA1032, N-[5-[4-[(3-cyanopyrazin-2-yl)amino]cyclohexoxy]-7-morpholino-1,6-naphthyridin-3-yl]methanesulfonamide]
CS(=O)(=O)Nc1cnc2cc(N3CCOCC3)nc(O[C@H]3CC[C@@H](Nc4ccccn4)CC3)c2c1 [LFA1034, N-[7-morpholino-5-[4-(2-pyridylamino)cyclohexoxy]-1,6-naphthyridin-3-yl]methanesulfonamide]
CS(=O)(=O)Nc1cnc2cc(N3CCOCC3)nc(O[C@H]3CC[C@@H](Nc4cnc(C#N)cn4)CC3)c2c1 [LFA1036, N-[5-[4-[(5-cyanopyrazin-2-yl)amino]cyclohexoxy]-7-morpholino-1,6-naphthyridin-3-yl]methanesulfonamide]
CS(=O)(=O)Nc1cnc2cc(N3CCOCC3)nc(O[C@H]3CC[C@@H](Nc4cnc(C(F)(F)F)cn4)CC3)c2c1 [LFA1037, N-[7-morpholino-5-[4-[[5-(trifluoromethyl)pyrazin-2-yl]amino]cyclohexoxy]-1,6-naphthyridin-3-yl]methanesulfonamide]
Cc1nc(N[C@H]2CC[C@@H](Oc3nc(N4CCOCC4)cc4ncc(NS(C)(=O)=O)cc34)CC2)ncc1F [LFA1039, N-[5-[4-[(5-fluoro-4-methyl-pyrimidin-2-yl)amino]cyclohexoxy]-7-morpholino-1,6-naphthyridin-3-yl]methanesulfonamide;2,2,2-trifluoroacetic acid]
CS(=O)(=O)Nc1cnc2cc(N3CCOCC3)nc(O[C@H]3CC[C@@H](Nc4nccc(C#N)n4)CC3)c2c1 [LFA1042, N-[5-[4-[(4-cyanopyrimidin-2-yl)amino]cyclohexoxy]-7-morpholino-1,6-naphthyridin-3-yl]methanesulfonamide;2,2,2-trifluoroacetic acid]
Cc1cc(C#N)nc(N[C@H]2CC[C@@H](Oc3nc(N4CCOCC4)cc4ncc(NS(C)(=O)=O)cc34)CC2)n1 [LFA1043, N-[5-[4-[(4-cyano-6-methyl-pyrimidin-2-yl)amino]cyclohexoxy]-7-morpholino-1,6-naphthyridin-3-yl]methanesulfonamide;2,2,2-trifluoroacetic acid]
CS(=O)(=O)Nc1cnc2cc(N3CCOCC3)nc(O[C@H]3CC[C@@H](Nc4cnccn4)CC3)c2c1 [LFA1045, N-[7-morpholino-5-[4-(pyrazin-2-ylamino)cyclohexoxy]-1,6-naphthyridin-3-yl]methanesulfonamide;2,2,2-trifluoroacetic acid]
Cc1ccnc(N[C@H]2CC[C@@H](Oc3nc(N4CCOCC4)cc4ncc(NS(C)(=O)=O)cc34)CC2)n1 [LFA1047]
Cc1cnc(N[C@H]2CC[C@@H](Oc3nc(N4CCOCC4)cc4ncc(NS(C)(=O)=O)cc34)CC2)nc1 [LFA1048, N-[5-[4-[(5-methylpyrimidin-2-yl)amino]cyclohexoxy]-7-morpholino-1,6-naphthyridin-3-yl]methanesulfonamide]
CN(C)Cc1cnc(N[C@H]2CC[C@@H](Oc3nc(N4CCOCC4)cc4ncc(NS(C)(=O)=O)cc34)CC2)nc1 [LFA1049, N-[5-[4-[[5-[(dimethylamino)methyl]pyrimidin-2-yl]amino]cyclohexoxy]-7-morpholino-1,6-naphthyridin-3-yl]methanesulfonamide]
Oc1cnc2cc(N3CCOCC3)nc(O[C@H]3CC[C@@H](Nc4ccccn4)CC3)c2c1 [LFA1056, 7-morpholino-5-[4-(2-pyridylamino)cyclohexoxy]-1,6-naphthyridin-3-ol]
Cc1cc(C)nc(N[C@H]2CC[C@@H](Oc3nc(N4CCOCC4)cc4ncc(O)cc34)CC2)n1 [LFA1057, 5-[4-[(4,6-dimethylpyrimidin-2-yl)amino]cyclohexoxy]-7-morpholino-1,6-naphthyridin-3-ol]
CN(C)Cc1cnc(N[C@H]2CC[C@@H](Oc3nc(N4CCOCC4)cc4ncc(O)cc34)CC2)nc1 [LFA1060, 5-[4-[[5-[(dimethylamino)methyl]pyrimidin-2-yl]amino]cyclohexoxy]-7-morpholino-1,6-naphthyridin-3-ol]
CS(=O)(=O)Nc1cnc2cc(N3CCOCC3)nc(O[C@H]3CC[C@@H](n4cc(F)cn4)CC3)c2c1 [LFA1061, N-[5-[4-(4-fluoropyrazol-1-yl)cyclohexoxy]-7-morpholino-1,6-naphthyridin-3-yl]methanesulfonamide]

IC50, 10000 to 30000 nM:
Cn1cc([C@H]2CC[C@H](Oc3nc(N4CCOCC4)cc4ncc(NS(C)(=O)=O)cc34)CC2)cn1 [LFA1063, N-[5-[4-(1-methylpyrazol-4-yl)cyclohexoxy]-7-morpholino-1,6-naphthyridin-3-yl]methanesulfonamide]

IC50, 100 to 1000 nM:
CS(=O)(=O)Nc1cnc2cc(N3CCOCC3)nc(O[C@H]3CC[C@@H](Nc4ccnc(C#N)n4)CC3)c2c1 [LFA1033, N-[5-[4-[(2-cyanopyrimidin-4-yl)amino]cyclohexoxy]-7-morpholino-1,6-naphthyridin-3-yl]methanesulfonamide]
CS(=O)(=O)Nc1cnc2cc(N3CCOCC3)nc(O[C@H]3CC[C@@H](Nc4ccnc(C(F)(F)F)n4)CC3)c2c1 [LFA1035, N-[7-morpholino-5-[4-[[2-(trifluoromethyl)pyrimidin-4-yl]amino]cyclohexoxy]-1,6-naphthyridin-3-yl]methanesulfonamide]
COc1nc(NC2CCC(Oc3nc(N4CCOCC4)cc4ncc(NS(C)(=O)=O)cc34)CC2)ncc1C#N (stereo not shown) [LFA1038, N-[5-[4-[(5-cyano-4-methoxy-pyrimidin-2-yl)amino]cyclohexoxy]-7-morpholino-1,6-naphthyridin-3-yl]methanesulfonamide]
COc1nc(N[C@H]2CC[C@@H](Oc3nc(N4CCOCC4)cc4ncc(NS(C)(=O)=O)cc34)CC2)ncc1C [LFA1040, N-[5-[4-[(4-methoxy-5-methyl-pyrimidin-2-yl)amino]cyclohexoxy]-7-morpholino-1,6-naphthyridin-3-yl]methanesulfonamide]
CN(C)c1ccnc(N[C@H]2CC[C@@H](Oc3nc(N4CCOCC4)cc4ncc(NS(C)(=O)=O)cc34)CC2)n1 [LFA1041, N-[5-[4-[[4-(dimethylamino)pyrimidin-2-yl]amino]cyclohexoxy]-7-morpholino-1,6-naphthyridin-3-yl]methanesulfonamide]
CS(=O)(=O)Nc1cnc2cc(N3CCOCC3)nc(O[C@H]3CC[C@@H](Nc4nccc(C(F)(F)F)n4)CC3)c2c1 [LFA1044, N-[7-morpholino-5-[4-[[4-(trifluoromethyl)pyrimidin-2-yl]amino]cyclohexoxy]-1,6-naphthyridin-3-yl]methanesulfonamide]
Cc1ccc(N[C@H]2CC[C@@H](Oc3nc(N4CCOCC4)cc4ncc(O)cc34)CC2)nc1 [LFA1051, 5-[4-[(5-methyl-2-pyridyl)amino]cyclohexoxy]-7-morpholino-1,6-naphthyridin-3-ol]
Cc1ccc(N[C@H]2CC[C@@H](Oc3nc(N4CCOCC4)cc4ncc(O)cc34)CC2)cn1 [LFA1053, 5-[4-[(6-methyl-3-pyridyl)amino]cyclohexoxy]-7-morpholino-1,6-naphthyridin-3-ol]
Oc1cnc2cc(N3CCOCC3)nc(O[C@H]3CC[C@@H](Nc4ncc(F)cc4F)CC3)c2c1 [LFA1054, 5-[4-[(3,5-difluoro-2-pyridyl)amino]cyclohexoxy]-7-morpholino-1,6-naphthyridin-3-ol]
Cc1ccncc1N[C@H]1CC[C@@H](Oc2nc(N3CCOCC3)cc3ncc(O)cc23)CC1 [LFA1055, 5-[4-[(4-methyl-3-pyridyl)amino]cyclohexoxy]-7-morpholino-1,6-naphthyridin-3-ol]
CN(c1ncccn1)[C@H]1CC[C@@H](Oc2nc(N3CCOCC3)cc3ncc(O)cc23)CC1 [LFA1058, 5-[4-[methyl(pyrimidin-2-yl)amino]cyclohexoxy]-7-morpholino-1,6-naphthyridin-3-ol]
Cc1cc(C#N)nc(N[C@H]2CC[C@@H](Oc3nc(N4CCOCC4)cc4ncc(O)cc34)CC2)n1 [LFA1059, 2-[[4-[(3-hydroxy-7-morpholino-1,6-naphthyridin-5-yl)oxy]cyclohexyl]amino]-6-methyl-pyrimidine-4-carbonitrile]
Cn1cc([C@H]2CC[C@@H](Oc3nc(N4CCOCC4)cc4ncc(NS(C)(=O)=O)cc34)CC2)cn1 [LFA1062, N-[5-[4-(1-methylpyrazol-4-yl)cyclohexoxy]-7-morpholino-1,6-naphthyridin-3-yl]methanesulfonamide]
CS(=O)(=O)Nc1cnc2cc(N3CCOCC3)nc(O[C@H]3CC[C@@H](c4cnccn4)CC3)c2c1 [LFA1064, N-[7-morpholino-5-(4-pyrazin-2-ylcyclohexoxy)-1,6-naphthyridin-3-yl]methanesulfonamide]

IC50, 1000 to 10000 nM:
Cc1cnc(N[C@H]2CC[C@@H](Oc3nc(N4CCOCC4)cc4ncc(O)cc34)CC2)c(C)c1 [LFA1052, 5-[4-[(3,5-dimethyl-2-pyridyl)amino]cyclohexoxy]-7-morpholino-1,6-naphthyridin-3-ol]
